From patent US7517874B2 (priority 2007, dated 2009) come the findings set out here.

Test [1] has as its target human CB1 receptor (hCB1) (Homo sapiens, UniProt P21554). The test is described as follows: cell-based. Type of test: cell-based. The procedure, abridged: (§1)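 Agonism or inverse agonism was assessed as change in intracellular cAMP in CHO-K1 cells expressing human CB1 or rat CB2 (genomic DNA, pcDNA3.1).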
Test [2] deals with T1, rat CB2 receptor (rCB2) (Rattus norvegicus, UniProt Q9QZN9).
T1 sequence (Q9QZN9 1-360): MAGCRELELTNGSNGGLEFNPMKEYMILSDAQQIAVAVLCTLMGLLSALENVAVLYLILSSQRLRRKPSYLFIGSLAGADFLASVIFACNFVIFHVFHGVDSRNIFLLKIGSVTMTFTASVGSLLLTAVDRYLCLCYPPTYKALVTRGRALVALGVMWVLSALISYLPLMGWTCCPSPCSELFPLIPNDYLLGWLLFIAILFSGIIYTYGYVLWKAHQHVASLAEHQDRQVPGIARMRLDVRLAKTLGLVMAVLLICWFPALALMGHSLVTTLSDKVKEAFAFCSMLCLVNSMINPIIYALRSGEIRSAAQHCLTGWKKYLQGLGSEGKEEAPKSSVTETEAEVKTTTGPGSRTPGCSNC
The test is described as follows: cell-based. The test is classed as cell-based. As to conditions: for +/− RCB2: agonist or inverse agonist at rCB2. The procedure, abridged:
as §1

Where [3] appears, read: groups >100 nM-10 μM and >10 μM, cAMP, CHO-K1 hCB1, read-out: EC50 HCB1.

Read-outs that look alike come from different tables or passages of the source.

Chain of human CB1 receptor (hCB1) (P21554 whole entry): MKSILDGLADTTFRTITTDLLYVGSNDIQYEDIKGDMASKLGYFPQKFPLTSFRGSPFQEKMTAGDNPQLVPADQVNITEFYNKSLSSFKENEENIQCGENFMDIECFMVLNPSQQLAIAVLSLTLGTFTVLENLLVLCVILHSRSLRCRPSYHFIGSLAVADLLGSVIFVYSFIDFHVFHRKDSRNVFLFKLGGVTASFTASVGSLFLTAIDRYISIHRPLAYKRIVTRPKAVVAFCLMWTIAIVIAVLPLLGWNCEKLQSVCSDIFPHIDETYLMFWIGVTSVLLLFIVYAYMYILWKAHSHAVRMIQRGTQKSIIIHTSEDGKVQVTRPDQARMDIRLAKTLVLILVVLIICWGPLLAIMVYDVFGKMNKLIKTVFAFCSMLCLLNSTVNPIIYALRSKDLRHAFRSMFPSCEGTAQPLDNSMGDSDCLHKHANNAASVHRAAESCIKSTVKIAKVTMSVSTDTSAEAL

By EC50 is commonly meant the concentration giving half of the maximal effect. On to `CNC(=O)[C@@H](NC(=O)c1nc(-c2ccc(F)c(OC)c2)n2c1CN(C)CCC2)C(C)(C)C` [Compound 393, (S)-N-(3,3-dimethyl-1-(methylamino)-1-oxobutan-2-yl)-3-(4-fluoro-3-methoxyphenyl)-8-methyl-6,7,8,9-tetrahydro-5H-imidazo[1,5-a][1,4]diazepine-1-carboxamide], for which, in test [1], the EC50 was more than 10000 nM. Moreover, the “+/− RCB2” value in test [2] is “+”.
As to `CNC(=O)[C@@H](NC(=O)c1nc(-c2cccc(-c3nnc(C)o3)c2)n2c1CN(C)CCC2)C(C)(C)C` [Compound 407, (S)-N-(3,3-dimethyl-1-(methylamino)-1-oxobutan-2-yl)-8-methyl-3-(3-(5-methyl-1,3,4-oxadiazol-2-yl)phenyl)-6,7,8,9-tetrahydro-5H-imidazo[1,5-a][1,4]diazepine-1-carboxamide], the EC50 in test [1] and in test [2] was more than 10000 nM in each case.
As for `CN1CCn2c(-c3ccccc3)nc(C(=O)NCC3OCCO3)c2C1` [Compound 234, N-((1,3-dioxolan-2-yl)methyl)-7-methyl-3-phenyl-5,6,7,8-tetrahydroimidazo[1,5-a]pyrazine-1-carboxamide], the EC50 in test [1] was more than 10000 nM. For the same compound, the “+/− RCB2” value in test [2] is given as “+”.
Consider `CNC(=O)C(NC(=O)c1nc(-c2ccccc2)n2c1CN(C)CCC2)C(C)(C)F` (centres unmarked) [Compound 605, N-(3-fluoro-3-methyl-1-(methylamino)-1-oxobutan-2-yl)-8-methyl-3-phenyl-6,7,8,9-tetrahydro-5H-imidazo[1,5-a][1,4]diazepine-1-carboxamide], for which, in test [1], the half-maximal effective concentration (EC50) is more than 10000 nM. Also, the “+/− RCB2” value in test [2] is given as “+”.
For `CNC(=O)[C@@H](NC(=O)c1nc(-c2ccccc2)n2c1CN(C)CCC2)C(C)(C)O` [Compound 607, (S)-N-(3-hydroxy-3-methyl-1-(methylamino)-1-oxobutan-2-yl)-8-methyl-3-phenyl-6,7,8,9-tetrahydro-5H-imidazo[1,5-a][1,4]diazepine-1-carboxamide] the same measures were more than 10000 nM and “+”.
For `Cc1noc([C@@H](NC(=O)c2nc(-c3ccccc3)n3c2CN(C(C)C)CC3)C(C)(C)C)n1` [Compound 89, (S)-N-(2,2-dimethyl-1-(3-methyl-1,2,4-oxadiazol-5-yl)propyl)-7-isopropyl-3-phenyl-5,6,7,8-tetrahydroimidazo[1,5-a]pyrazine-1-carboxamide] the same measures were more than 10000 nM and “−”.
For the compound `COC(=O)N1CCn2c(-c3ccccc3)nc(C(=O)NC3CCCCC3)c2C1` [Compound 187, methyl 1-(cyclohexylcarbamoyl)-3-phenyl-5,6-dihydroimidazo[1,5-a]pyrazine-7(8H)-carboxylate], the half-maximal effective concentration (EC50) in test [1] (setting [3]) was more than 10000 nM. The “+/− RCB2” value in test [2] is recorded as “−”.
As to `CCNC(=O)[C@@H](NC(=O)c1nc(-c2ccccc2)n2c1CN(C)CCC2)C(C)(C)C` [Compound 478, (S)-N-(1-(ethylamino)-3,3-dimethyl-1-oxobutan-2-yl)-8-methyl-3-phenyl-6,7,8,9-tetrahydro-5H-imidazo[1,5-a][1,4]diazepine-1-carboxamide], in test [1], the concentration for a half-maximal effect (EC50) was more than 10000 nM. Besides, the “+/− RCB2” value in test [2] is listed as “+”.
In the case of `CNC(=O)[C@@H](NC(=O)c1nc(-c2ccccc2)n2c1CN(c1cccc(Cl)n1)CC2)C(C)(C)C` [Compound 299, (S)-7-(6-chloropyridin-2-yl)-N-(3,3-dimethyl-1-(methylamino)-1-oxobutan-2-yl)-3-phenyl-5,6,7,8-tetrahydroimidazo[1,5-a]pyrazine-1-carboxamide], the “+/− HCB1” value in test [1] (agonist or inverse agonist at hCB1) is recorded as “+”. Further, in test [2], the “+/− RCB2” value is “−”.
`CC(C)CN1CCn2c(-c3ccccc3)nc(C(=O)NC3C4(C)CCC(C4)C3(C)C)c2C1` (centres unmarked) [Compound 142, 7-isobutyl-3-phenyl-N-(1,3,3-trimethylbicyclo[2.2.1]heptan-2-yl)-5,6,7,8-tetrahydroimidazo[1,5-a]pyrazine-1-carboxamide] returned an EC50 in test [1] of more than 10000 nM. Also, the “+/− RCB2” value in test [2] is recorded as “−”.
`CNC(=O)[C@@H](NC(=O)c1nc(-c2ccc(C(F)(F)F)cc2)n2c1CN(C)CCC2)C(C)(C)C` [Compound 330, (S)-N-(3,3-dimethyl-1-(methylamino)-1-oxobutan-2-yl)-8-methyl-3-(4-(trifluoromethyl)phenyl)-6,7,8,9-tetrahydro-5H-imidazo[1,5-a][1,4]diazepine-1-carboxamide] returned an EC50 in test [1] of more than 10000 nM. Moreover, in test [2], the “+/− RCB2” value is listed as “−”.
For `O=C(Nc1ccccc1)c1nc(-c2ccccc2)n2c1CNCC2` [Compound 41, N,3-diphenyl-5,6,7,8-tetrahydroimidazo[1,5-a]pyrazine-1-carboxamide], the EC50 was more than 10000 nM in test [1] (setting [3]); more than 10000 nM in test [2] (groups >100 nM-10 μM and >10 μM, cAMP, CHO-K1 rCB2, read-out: EC50 RCB2).
Compound `COC(=O)N1CCn2c(-c3ccc(Cl)cc3)nc(C(=O)N[C@H](CO)C(C)(C)C)c2C1` [Compound 184, (S)-methyl 3-(4-chlorophenyl)-1-(1-hydroxy-3,3-dimethylbutan-2-ylcarbamoyl)-5,6-dihydroimidazo[1,5-a]pyrazine-7(8H)-carboxylate] registered an EC50 in test [1] of more than 10000 nM. The “+/− RCB2” value in test [2] is reported as “−”.
For `Cc1nnc([C@@H](NC(=O)c2nc(-c3ccccc3)n3c2CNCC3)C(C)(C)C)o1` [Compound 200, (S)-N-(2,2-dimethyl-1-(5-methyl-1,3,4-oxadiazol-2-yl)propyl)-3-phenyl-5,6,7,8-tetrahydroimidazo[1,5-a]pyrazine-1-carboxamide] the same measures were more than 10000 nM and “+”.
On to `CNC(=O)[C@@H](NC(=O)c1nc(-c2cc(F)ccc2F)n2c1CN(C)CC2)C(C)(C)C` [Compound 250, (S)-3-(2,5-difluorophenyl)-N-(3,3-dimethyl-1-(methylamino)-1-oxobutan-2-yl)-7-methyl-5,6,7,8-tetrahydroimidazo[1,5-a]pyrazine-1-carboxamide], for which the EC50 in test [1] and in test [2] was more than 10000 nM each time.
For `CC(C)CN1CCn2c(-c3ccccc3)nc(C(=O)NCC(C)(C)C)c2C1` [Compound 58, 7-isobutyl-N-neopentyl-3-phenyl-5,6,7,8-tetrahydroimidazo[1,5-a]pyrazine-1-carboxamide], the EC50 in test [1] was more than 10000 nM. Further, the “+/− RCB2” value in test [2] was “−”.
For `CCN1CCn2c(-c3ccc(Cl)cc3)nc(C(=O)N[C@H](CO)C(C)(C)C)c2C1` [Compound 161, (S)-3-(4-chlorophenyl)-7-ethyl-N-(1-hydroxy-3,3-dimethylbutan-2-yl)-5,6,7,8-tetrahydroimidazo[1,5-a]pyrazine-1-carboxamide] the same measures were more than 10000 nM and “−”.
As for `CNC(=O)[C@@H](NC(=O)c1nc(-c2ccc(C(C)=O)cc2)n2c1CN(C)CCC2)C(C)(C)C` [Compound 415, (S)-3-(4-acetylphenyl)-N-(3,3-dimethyl-1-(methylamino)-1-oxobutan-2-yl)-8-methyl-6,7,8,9-tetrahydro-5H-imidazo[1,5-a][1,4]diazepine-1-carboxamide], the EC50 in test [1] and in test [2] was more than 10000 nM each time.
On to `CNC(=O)[C@@H](NC(=O)c1nc(C2=CCCCC2)n2c1CN(C)CCC2)C(C)(C)C` [Compound 396, (S)-3-cyclohexenyl-N-(3,3-dimethyl-1-(methylamino)-1-oxobutan-2-yl)-8-methyl-6,7,8,9-tetrahydro-5H-imidazo[1,5-a][1,4]diazepine-1-carboxamide], for which, in test [1], the EC50 was more than 10000 nM. Moreover, in test [2], the “+/− RCB2” value was “+”.
